Here are results for 3 compounds from US20120289574A1, “HYDRATE CRYSTALS” (AJINOMOTO CO., INC., priority 2008, published 2012).

Where two headings read alike, the source gives them in different places.

For data set [1] the following is noted: for Comparison of decomposition rates ((b)/(a)), decomposition product X (lactone) / Comparison of decomposition rates ((b)/(a)), decomposition product Y (lactam): Comp. Ex. 1 (b) relative to Example 4 (a), 120° C.; for Rate of decomposition over time into the decomposition product X (lactone) / Rate of decomposition over time into the decomposition product Y (lactam): storage 120° C., open vial, HPLC area ratio relative to monatin.
Method: A 50 mg quantity of the crystals of Example 4 and an identical quantity of the crystals of Comparative Example 1 were placed in separate 4 mL vials and stored at a temperature of 120° C. During this storage, the vials were left open. Following storage periods of 3 hours, 7 hours, and 24 hours, 2 mg of sample was removed and the rate of decomposition of the samples was determined by HPLC. Specifically, decomposition product X was a lactone compound (RT=21 minutes) and decomposition product Y was a lactam compound (RT=26 minutes). The individual area ratios (percentages) were calculated relative to the area of monatin.

Data set [2] is described as follows: Water vapor adsorption/desorption test. In kind it is physicochemical. The settings on record: water vapor adsorption/desorption curve, adsorption temperature 298 K. From the text: A water vapor adsorption/desorption curve was plotted for the (2R,4R) monatin monosodium salt hydrate crystals (A) obtained in Example 1. The measurement conditions were as follows. The measured values are given in FIG. 5. • Device: Automatic vapor adsorption measuring device BELSORP18 made by Bel Japan Inc. • Measurement method: Volumetric gas adsorption method
• Adsorbed gas: H2O • Air thermostat temperature (K): 353 • Adsorption temperature (K): 298 • Saturation vapor pressure (kPa): 3.169 • Adsorption cross-sectional area (nm^2): 0.125 • Maximum adsorption pressure (relative pressure P/PO): desorption: 0.90; adsorption: 0.95 • Minimum adsorption pressure (relative pressure P/PO): desorption: 0.10; adsorption: 0.05 • Equilibration period: 500 s

Data set [3] is described as follows: Sweetness intensity by panelists relative to 5 percent sucrose aqueous solution. In kind it is in vivo. The note with it: average of values provided by seven panelists relative to 5 percent sucrose aqueous solution. From the text:
Sweetness intensity: 2,700-fold (average of values provided by seven panelists relative to 5 percent sucrose aqueous solution)

Setting [4] is: 24 hr, listed as Comparative Example 1.

Turning to “(2R,4R) monatin monosodium salt 0.2 ethanolate [Comp. Ex. 1]”, the “Comparison of decomposition rates ((b)/(a)), decomposition product X (lactone)” value is 30-fold in data set [1] (3 hr), 21-fold in data set [1] (7 hr), 27-fold in data set [1] (24 hr) and 27 fold in data set [1] (setting [4]). Moreover, the “Comparison of decomposition rates ((b)/(a)), decomposition product Y (lactam)” value is 19-fold in data set [1] (3 hr), 17-fold in data set [1] (7 hr), 20-fold in data set [1] (24 hr) and 20 fold in data set [1] (setting [4]). Further, the “Rate of decomposition over time into the decomposition product X (lactone)” value was 0% in data set [1] (0 hr), 3.38% in data set [1] (3 hr), 4.64% in data set [1] (7 hr) and 6.67% in data set [1] (24 hr). For the same compound, the “Rate of decomposition over time into the decomposition product Y (lactam)” value was 0% in data set [1] (0 hr), 2.08% in data set [1] (3 hr), 3.63% in data set [1] (7 hr) and 7.46% in data set [1] (24 hr).
For `NC(CC(O)(Cc1c[nH]c2ccccc12)C(=O)O)C(=O)[O-].[Na+]` [Example 1, (2R,4R) Monatin Monosodium Salt Hydrate Crystals (A)], in data set [2], the Most stable hydrate result is on record as “trihydrate”.
For `N[C@H](C[C@](O)(Cc1c[nH]c2ccccc12)C(=O)O)C(=O)[O-].O.[Na+]` [Example 4, (2R,4R) Monatin Monosodium Salt Monohydrate Crystals (B)], the “Rate of decomposition over time into the decomposition product X (lactone)” value came to 0% in data set [1] (0 hr), 0.11% in data set [1] (3 hr), 0.23% in data set [1] (7 hr) and 0.24% in data set [1] (24 hr). Besides, the “Rate of decomposition over time into the decomposition product Y (lactam)” value in data set [1] (0 hr) came out at 0%; in data set [1] (3 hr), 0.11%; in data set [1] (7 hr) it was 0.21%; in data set [1] (24 hr) it was 0.38%. The Sweetness intensity in data set [3] is reported as 2,700 fold.
